Data on 13 compounds can be found in US20050014700A1, “Cbi analogues of cc-1065 and the duocarmycins” (priority 2001, published 2005).

Data set [1] concerns L1210. The data set is described as follows: cellular functional assay for L1210 cytotoxic activity. Format: cell-based. How it is done: For comparison, the L1210 IC50 for (+)-N-Boc-CBI, which lacks an attached DNA binding domain, is 80 nM (80,000 pM).
Data set [2] deals with w794 duplex DNA (SV40 nucleosomal DNA insert in M13mp10). The data set is described as follows: DNA alkylation efficiency and selectivity, thermally-induced strand cleavage of 5′ end-labeled duplex DNA (PAGE). Format: biochemical. The following applies: for concentration at which DNA alkylation is detectable: 25° C., 24 hours. From the text: The DNA alkylation properties of the compounds including those of CBI-X9-Y9 (24), CBI-X11-Y9 (25) and CBI-X10-Y10 (26) (FIG. 7) were examined within a 150 base-pair segment of duplex DNA and compared with (+)-duocarmycin SA (2), (+)-CBI-CDPI2 (27) and (+)-CBI-indole2 (28). One clone of phage M13mp10 was selected for the study that contained the SV40 nucleosomal DNA insert w794 (nucleotide no. 5238-138) (Ambrose, C., et al., J. Mol. Biol. 1989, 210, 255). The alkylation site identification and the assessment of the relative selectivity among the available sites was obtained by thermally-induced strand cleavage of the singly 5′ end-labeled duplex DNA after exposure to the agents. After treatment of the end-labeled duplex DNA with a range of agent concentrations, the unbound agent was removed by EtOH precipitation of the DNA. Redissolution of the DNA in aqueous buffer, thermolysis (100° C., 30 min) to induce strand cleavage at the sites of DNA alkylation, denaturing high resolution polyacrylamide gel electrophoresis (PAGE) adjacent to Sanger dideoxynucleotide sequencing standards, and autoradiography led to identification of the DNA cleavage and alkylation sites (Boger, D. L., et al., Tetrahedron 1991, 47, 2661).
The preparation of singly ^32P 5′ end-labeled double-stranded DNA, the agent binding studies, gel electrophoresis, and autoradiography were conducted according to procedures described in full detail elsewhere.^28 Eppendorf tubes containing the 5′ end-labeled DNA (9 μL) in TE buffer (10 mM Tris, 1 mM EDTA, pH 7.5) were treated with the agent in DMSO (1 μL at the specified concentration). The solution was mixed by vortexing and brief centrifugation and subsequently incubated at 25° C. for 24 hours. The covalently modified DNA was separated from the unbound agent by EtOH precipitation and resuspended in TE buffer (10 μL). The solution of DNA in an Eppendorf tube sealed with Parafilm was warmed at 100° C. for 30 min to introduce cleavage at the alkylation sites, allowed to cool to 25° C., and centrifuged. Formamide dye (0.03% xylene cyanol FF, 0.03% bromophenol blue, 8.7% Na2EDTA 250 mM) was added (5 μL) to the supernatant. Prior to electrophoresis, the sample was denatured by warming at 100° C. for 5 min, placed in an ice bath, and centrifuged, and the supernatant (3 μL) was loaded directly onto the gel. Sanger dideoxynucleotide sequencing reactions were run as standards adjacent to the reaction samples. Polyacrylamide gel electrophoresis (PAGE) was run on an 8% sequencing gel under denaturing conditions (8 M urea) in TBE buffer (100 mM Tris, 100 mM boric acid, 0.2 mM Na2EDTA) followed by autoradiography.

Data set [3] has the same test system. The following applies: cited from earlier work; for DNA alkylation efficiency compared to parent (+)-CBI-CDPI (21) / DNA alkylation selectivity compared to parent (+)-CBI-CDPI (21): previous study.
Data set [4] concerns L1210. The note with it: previous study; additional heteroatom in carboxylate bearing aromatic ring; cited from earlier work.

Like-named read-outs stand apart in the source and are kept apart here.

By IC50 is commonly meant the concentration at which inhibition is half-maximal. Read a high IC50 as weaker potency.

“1-(Chloromethyl)-5-hydroxy-3-{[4-[4-(tert-Butoxycarbonylamino)-1-methylpyrrol-2-yl)carbonyl]amino-1-methylpyrrol-2-yl]carbonyl}-1,2-dihydrobenzo[e]indole [X10-Y10]”: in the data set with L1210 [1], half-maximal inhibition (IC50) required 440 pM. Moreover, in data set [2] (comparable reaction conditions), the “DNA alkylation effectiveness relative to N-Boc-CBI” value is reported as 10-100 fold. Moreover, in data set [2] (w794 DNA), the “lower DNA alkylation efficiency compared to 25” value is reported as 100-1000 fold and the “concentration at which DNA alkylation is detectable” value is listed as 10^−3 M.

In the data set with L1210 [1], “1-(Chloromethyl)-5-hydroxy-3-{[4-[4-(tert-Butoxycarbonylaminothiophen-2-yl)carbonyl]aminothiophen-2-yl]carbonyl}-1,2-dihydrobenzo[e]indole [X8-Y8]” returned an IC50 of 290 pM.

As to (+)-CBI-CDPBI, in data set [3], the “DNA alkylation efficiency compared to parent (+)-CBI-CDPI (21)” value is given as “analogous decrease in the DNA alkylation efficiency” and the “DNA alkylation selectivity compared to parent (+)-CBI-CDPI (21)” value is given as “no alteration in the alkylation selectivity”. Also, the “decrease in cytotoxic activity relative to (+)-CBI-CDPI (21)” value in the data set on L1210 [4] is recorded as 40 fold.

As for “1-(Chloromethyl)-5-hydroxy-3-{[3-[2-(tert-Butoxycarbonylamino-1,3-thiazol-4-yl) carbonyl]-1,2-dihydro(3H-pyrrolo[3,2-e]indol)-7-yl)carbonyl}-1,2-dihydrobenzo[e]indole [X11-Y7]”, the IC50 in the data set with L1210 [1] stood at 5 pM.

Turning to `NC(=O)N1CCc2c1ccc1[nH]c(C(=O)N3CCc4c3ccc3[nH]c(C(=O)N5C[C@H]6C[C@@]67C5=CC(=O)c5ccccc57)cc43)cc21` [compound 27, (+)-CBI-CDPI2], the “alkylation of the minor 5′-ACTAA-3′ site” value in data set [2] (w794 DNA) is “neither 27 or 28 alkylate the minor 5′-ACTAA-3′ site to a significant extent”.

As for `Cn1cc(NC(=O)OC(C)(C)C)nc1C(=O)Nc1cn(C)c(C(=O)N2CC(CCl)c3c2cc(O)c2ccccc32)n1` (centres unmarked) [compound 24], the “concentration at which DNA alkylation is detectable” value in data set [2] (w794 DNA) is on record as > 10^−3 M.

In the case of (+)-CBI-indole2 [compound 28], the “alkylation of the minor 5′-ACTAA-3′ site” value in data set [2] (w794 DNA) was “neither 27 or 28 alkylate the minor 5′-ACTAA-3′ site to a significant extent”.

As to `CC(C)(C)OC(=O)N1CC2CC23C1=CC(=O)c1ccccc13` (single isomer, unassigned; (+)) [(+)-N-Boc-CBI], the IC50 in the data set with L1210 [1] is 80000 pM.

Regarding “1-(Chloromethyl)-5-hydroxy-3-{[3-[4-(tert-Butoxycarbonylamino)-1-methylpyrrol-2-yl)-carbonyl]-1,2-dihydro(3H-pyrrolo[3,2-e]indol)-7-yl)carbonyl}-1,2-dihydrobenzo[e]indole [X11-Y10]”, the concentration for half-maximal inhibition (IC50) in the data set with L1210 [1] was 5 pM.

As to (+)-CBI-CDPI [compound 21], in data set [3] (w794 DNA, prior study), the “alkylation of the minor 5′-ACTAA-3′ site” value was “does”.

Take `CC(C)(C)OC(=O)N1CCc2c1ccc1[nH]c(C(=O)N3CCc4c3ccc3[nH]c(C(=O)N5CC(CCl)c6c5cc(O)c5ccccc65)cc43)cc21` (centres unmarked) [X11-Y11]: the IC50 with L1210 [1] stood at 5 pM.

`CC(C)(C)OC(=O)Nc1ccc2[nH]c(C(=O)N3CCc4c3ccc3[nH]c(C(=O)N5CC(CCl)c6c5cc(O)c5ccccc65)cc43)cc2c1` (centres unmarked) [X11-Y14, 1-(Chloromethyl)-5-hydroxy-3-{[3-[5-(tert-Butoxycarbonylaminoindole-2-yl)carbonyl]-1,2-dihydro(3H-pyrrolo[3,2-e]indol)-7-yl)carbonyl}-1,2-dihydrobenzo [e]indole]: in the data set on L1210 [1], half-maximal inhibition (IC50) was put at 7 pM.

As to (+)-CBI-CDPBO, in data set [3], the “DNA alkylation efficiency compared to parent (+)-CBI-CDPI (21)” value is “analogous decrease in the DNA alkylation efficiency” and the “DNA alkylation selectivity compared to parent (+)-CBI-CDPI (21)” value is reported as “no alteration in the alkylation selectivity”. In addition, the “decrease in cytotoxic activity relative to (+)-CBI-CDPI (21)” value in the data set with L1210 [4] is listed as 40 fold.
